The data set can be described thus: Human HepG2 cell viability assay in 384 well format. It is filed as toxicity, cell-based. Also on record: dose 125 nL, time 70.5 hour; concentration not given beside the values. The conditions noted are these: HepG2 cells, read-out: Inhibition.

Molecules are shown by their SMILES.

As for `COCCN1C(=O)CC[C@]12CC[C@@H](NC(=O)c1cc(C)on1)CC2`, the cytotoxicity at 70.5 h was -5.63%.
The figure for `CN(C)C(=O)N1CCC(C2C(=O)Nc3ccccc32)CC1` (stereo unspecified) is -10.4%; for `Cc1ccc(CN2CCc3c(C(=O)N(C)C)n[nH]c3C2)o1` it is -8.34%.
The figure for `CCN(C)C1COC2(CCN(C(=O)c3ccc4[nH]ccc4c3)CC2)C1` (stereo unspecified) is -11%; for `O=C(Cc1ccco1)N1CCC2(CCOCC2COCC2CC2)CC1` (stereo unspecified) it is -4.14%; for `CN(C)C(=O)N1CC(=O)NCC12CCN(C(=O)c1ccco1)C2` (stereo unspecified) it is -7.28%.
The figure for `CS(=O)(=O)NCc1cncc2c1CCN(C(=O)c1ccccn1)C2` is -12.5%.
As for `CC(C)NC(=O)C1Cc2nc(-c3ccsc3)sc2N1CC1CC1` (stereo unspecified), the cytotoxicity at 70.5 h was -6.43%.
Take `Cc1cccc(CN2CCC3(CCCN(Cc4cnn(C)c4)C3)C2=O)n1` (stereo unspecified): the cytotoxicity at 70.5 h was -18.3%.
For `COCC1CN(C(=O)c2ccccn2)Cc2nccn2C1` (stereo unspecified) the value was -11.1%; for `Cn1cc(CN2CCCC3(CCN(Cc4ccncc4)C3=O)C2)cn1` (stereo unspecified), -10.1%; for `CCCNC(=O)c1cc2c(s1)CCN2C(=O)c1ccccc1`, 14.2%.
For `Cc1cncc(C(=O)N2CCc3ncc(Cn4cccn4)n3CC2)c1` the value was 22.9%; for `COCC(=O)N1Cc2nccn2CC(Cn2ncccc2=O)C1` (stereo unspecified), -10%.
For `Cc1noc(C)c1CN1CCC2(CC1)NC(=O)CC2c1cnn(C)c1` (stereo unspecified) the value was -8.52%.
For the compound `O=C(c1ccc[nH]1)N1CCN(Cc2ccncc2)c2ncccc2C1`, the cytotoxicity at 70.5 h is -11.6%.
`O=C(c1ccco1)N1Cc2nccn2CC(Cn2ncccc2=O)C1` (stereo unspecified): the cytotoxicity at 70.5 h was -6.66%.
For `O=C(c1ccoc1)N1CCc2ncc(Cn3cccn3)n2CC1` the value was -7.98%.
For `Cn1cc(C2CC(=O)NC23CCN(Cc2nccs2)CC3)cn1` (stereo unspecified) the value was -9.24%; for `COCC(=O)N1CC[C@H]2C[C@H](c3nnc(C4CC4)o3)O[C@@H]2C1`, -8.34%.
The figure for `Cc1ccc(C(=O)N2CCc3ncc(Cn4cccn4)n3CC2)cn1` is -6.29%; for `CC(C)CO[C@@H]1CC[C@H]2[C@H]1OCCN2S(=O)(=O)C1CC1` it is 12.4%; for `NC(=O)N1Cc2nccn2CC(Cn2ncccc2=O)C1` (stereo unspecified) it is 1.65%.
Take `O=C(N1CCCC1)N1Cc2nccn2CC(Cn2ncccc2=O)C1` (stereo unspecified): the cytotoxicity at 70.5 h is -0.168%.
In the case of `c1cnc(NC[C@H]2OC[C@@H]3CCN(Cc4ccncc4)C[C@@H]32)nc1`, the cytotoxicity at 70.5 h turned out to be 17.4%.
On to `CN(Cc1cccnc1)[C@@H]1CN(c2ccccn2)[C@@H]2CCCO[C@H]12`, for which the cytotoxicity at 70.5 h is -9.04%.
For `CNC(=O)[C@H]1C[C@@H]2CN(C(=O)c3occc3C)C[C@@H]2N1S(C)(=O)=O` the value was -5.67%.
For `CC1c2ncc(Cn3cncn3)n2CCN1C(=O)c1cscn1` (stereo unspecified) the value was 20.8%; for `COCCN1Cc2ccccc2C2(CCN(S(C)(=O)=O)CC2)C1`, -5.3%; for `O=C(C1CCOC1)N1CCN(Cc2ccncc2)c2ncccc2C1` (stereo unspecified), -9.12%.
The figure for `O=C(c1cnccn1)N1CCC2(CCN(Cc3ccsc3)CC2)CC1` is -2.48%; for `O=C(c1cnccn1)N1CCC2(CCN(Cc3ccsc3)C2)CC1` it is -5.07%.
As for `O=C(N1CCCO1)[C@@]12CCO[C@@H]1CCN(Cc1ccsc1)C2`, the cytotoxicity at 70.5 h is -6.2%.
The figure for `Cc1cnc(N2CCc3c(CN(C)Cc4ccco4)cncc3C2)nc1` is -5.82%; for `Cc1occc1C(=O)N1CCn2c(Cn3cncn3)cnc2C1C` (stereo unspecified) it is 50.5%.
The figure for `Cc1nc(CN2C(=O)CCC23CCN(c2ncccc2C)CC3)cs1` is 33.3%; for `CCOCC1CN(C(=O)c2ccco2)Cc2cnn(C)c21` (stereo unspecified) it is -2.81%; for `CS(=O)(=O)N[C@H]1COC[C@@H]2CN(Cc3ccco3)C[C@@H]21` it is -5.39%.
On to `CCC(C)N1CCc2nc(N3CCCC3)nc(NC(C)C)c2C1` (stereo unspecified), for which the cytotoxicity at 70.5 h was -7.15%.
For `CC(C)CCN1C2(CCN(C(=O)N(C)C)C2)c2ccccc2S1(=O)=O` (stereo unspecified) the value was -17.2%.
For the compound `COCC1c2nnn(CC3CC3)c2CCN1C(=O)Cc1cccs1` (stereo unspecified), the cytotoxicity at 70.5 h is -8.15%.
On to `CCOC(=O)N1CCC2(CCNC2)C1` (stereo unspecified), for which the cytotoxicity at 70.5 h is -5.56%.
The figure for `Cc1ccc(N2CCc3c(CN(C)Cc4ccco4)cncc3C2)nn1` is -9.85%; for `COc1ccc(C[C@H]2CN(C3CCOCC3)CC[C@@H]2OCC2CC2)cc1` it is -3.98%; for `CN(C[C@@H]1CCC[C@@H]2CN(c3ncccn3)C[C@@H]21)C1CC1` it is -1.63%.
The figure for `CC(C)N1CCC2(CCCN(c3nccc(C(F)(F)F)n3)C2)CC1` is -2.7%; for `CN(C)C(=O)c1n[nH]c2c1CN(Cc1ccccn1)CC2` it is -3.26%.
The figure for `c1cc(CN2CCC3(CCOCC3COCC3CC3)CC2)co1` (stereo unspecified) is -4.78%; for `CCN1CCc2[nH]nc(C(=O)N3CCCC3C)c2C1` (stereo unspecified) it is 4.99%; for `CCN1CC(=O)NCC12CCN(C(=O)c1ccco1)C2` (stereo unspecified) it is -3.25%.
In the case of `Cc1ccc(C(=O)N2C[C@@H]3CCN(C(C)C)C[C@@H]3C2)cn1`, the cytotoxicity at 70.5 h stood at 0.492%.
In the case of `Fc1ccc(CN2CCO[C@H]3[C@H](OCC4CCCC4)CC[C@@H]32)cc1`, the cytotoxicity at 70.5 h is -9.77%.
For `CN(C)CCNC(=O)C1Cc2nc(-c3ccccc3)sc2N1CC1CC1` (stereo unspecified) the value was -11%.
For `CN(C)CCNC(=O)C1Cc2nc(-c3ccsc3)sc2N1CC1CC1` (stereo unspecified) the value was -4.49%.
Take `Cc1occc1C(=O)N1C[C@@H]2OCCN(c3ncccn3)[C@@H]2C1`: the cytotoxicity at 70.5 h is -11.6%.
For `Cn1cc(N2C(=O)CC[C@@H]3[C@H]2CCN3CC2CCOCC2)cn1` the value was -14.3%; for `CC(=O)N1CCC(c2nc3ccc(-c4ccnn4C)cn3n2)CC1`, -12.4%; for `O=C(c1ccoc1)N1C[C@@H]2OCCN(c3ncccn3)[C@@H]2C1`, 1.23%.
With `CN1CC(=O)N(c2ccccc2)CC12CCN(C(=O)c1cnccn1)C2` (stereo unspecified), the cytotoxicity at 70.5 h turned out to be 22.8%.
For `O=C(C1CCC1)N1CCO[C@H]2[C@H](OCCCn3cccn3)CC[C@@H]21` the value was 29%; for `Cc1cccc(CN2CCC3(CC2)NC(=O)C[C@H]3c2cnn(C)c2)n1`, -8.35%.
`Cc1ccc(N2CC[C@H]3C[C@H](C(=O)NCc4ccco4)O[C@H]3C2)nn1`: the cytotoxicity at 70.5 h is -11.1%.
`N#Cc1ccc(N2CCCC3(CCN(c4cccnc4)CC3)C2)cc1`: the cytotoxicity at 70.5 h is 51.2%.
The figure for `CNC(=O)[C@H]1CO[C@H]2CCN(c3ncc(F)cn3)C[C@H]2C1` is -8.64%; for `Cn1cc(C2CC(=O)NC23CCN(C(=O)Cc2ccccn2)CC3)cn1` (stereo unspecified) it is -5.18%; for `O=C(CC1CC1)N1CCO[C@H]2[C@H](OCCCn3cccn3)CC[C@@H]21` it is -4.17%.
The figure for `CN(C)C(=O)[C@H]1CO[C@H]2CCN(c3ncc(F)cn3)C[C@H]2C1` is -8.69%.
For `O=C(NCc1ccco1)[C@H]1C[C@@H]2CCN(c3ncccn3)C[C@H]2O1` the value was -5.11%; for `O=C(Nc1cnccn1)[C@H]1CO[C@H]2CCN(c3ncc(F)cn3)C[C@H]2C1`, 15%; for `Cc1ccc(N2CC[C@H]3C[C@H](C(=O)NCc4ccco4)O[C@@H]3C2)cc1`, 2.5%.
For the compound `CCC(=O)N1CCC2(CC1)CN(CCO)Cc1ccccc12`, the cytotoxicity at 70.5 h was found to be 1.97%.
For `Cc1ccc(CN2CCC3(CC2)CN(C(=O)c2cnccn2)CCO3)o1` the value was -6.5%.
The figure for `c1cnc(N2C[C@@H]3COC[C@]3(COCC3CCCC3)C2)nc1` is -14.8%.
For `CCc1ccc(CN2C[C@@H]3COC[C@H](NS(C)(=O)=O)[C@@H]3C2)o1` the value was -18.1%; for `COc1ccc(CN2C[C@H]3CN(Cc4ccncc4)C(=O)[C@H]3C2)cc1`, -7.43%.
Regarding `COc1ncccc1CN1CCc2[nH]nc(C(=O)N3CCCC3C)c2C1` (stereo unspecified), the cytotoxicity at 70.5 h is -3.57%.
The figure for `COCC1c2c(cnn2CC2CC2)CCN1Cc1ccc(C)o1` (stereo unspecified) is -8.01%.
The figure for `Cn1cc(C2CC(=O)NC23CCN(Cc2ccncc2)CC3)cn1` (stereo unspecified) is 13.9%; for `CN1CC(=O)N(c2cccnc2)CC12CCN(C(=O)c1cccn1C)C2` (stereo unspecified) it is 1.98%.
The figure for `Cc1nc2c(cc1C(=O)O)CCN(Cc1ccsc1)CC2` is -6.12%; for `CNC(=O)[C@H]1C[C@@H]2CCN(Cc3ccncc3)C[C@H]2O1` it is -6.07%.
`COCCNC(=O)[C@H]1C[C@@H]2CCN(Cc3ccncc3)C[C@H]2O1`: the cytotoxicity at 70.5 h was -9.09%.
The figure for `c1cncc(N2CCCC3(CCN(CCN4CCCC4)CC3)C2)c1` is -1.3%; for `c1cnn(CCCO[C@@H]2CN(C3CCOCC3)[C@@H]3CCCO[C@@H]32)c1` it is 4.39%.
`O=C(Nc1cccnc1)[C@H]1CO[C@H]2CCNC[C@H]2C1`: the cytotoxicity at 70.5 h is 0.847%.
The figure for `c1cnc(NC[C@H]2OC[C@@H]3CCN(Cc4ccsc4)C[C@@H]32)nc1` is -6.36%.
The figure for `Cc1nc(CN2CCC3(CCN(Cc4nccn4C)CC3)C2=O)cs1` is -7.58%; for `CC1c2ncc(CNC(=O)C3CC3)n2CCN1Cc1ccncc1` (stereo unspecified) it is -16.1%; for `c1cc(CN2CCO[C@H]3[C@H](OCCN4CCCC4)CC[C@@H]32)ccn1` it is -11.7%.
For `Cc1cccc(CN2CC[C@@H]3[C@@H](CO[C@H]3CNc3ncccn3)C2)n1` the value was -8.04%; for `O=C(NCC1CC1)C1CN(Cc2ccncc2)Cc2ccnn2C1` (stereo unspecified), -11.9%.

The record behind these values is ChEMBL document CHEMBL3507680, “University of Dundee, Gates Library screen for HepG2 cell viability”.
